# Values of other authors as cited in US20230021879A1, “SYNTHESIS OF 3 -RNA OLIGONUCLEOTIDES” (ALNYLAM PHARMACEUTICALS, INC., priority 2019, published 2023).
# Target: P-glycoprotein 1 (P-gp) (Homo sapiens, UniProt P08183)
# Details: earlier studies
# P-glycoprotein 1 (P-gp), sequence (P08183 whole entry, species assumed): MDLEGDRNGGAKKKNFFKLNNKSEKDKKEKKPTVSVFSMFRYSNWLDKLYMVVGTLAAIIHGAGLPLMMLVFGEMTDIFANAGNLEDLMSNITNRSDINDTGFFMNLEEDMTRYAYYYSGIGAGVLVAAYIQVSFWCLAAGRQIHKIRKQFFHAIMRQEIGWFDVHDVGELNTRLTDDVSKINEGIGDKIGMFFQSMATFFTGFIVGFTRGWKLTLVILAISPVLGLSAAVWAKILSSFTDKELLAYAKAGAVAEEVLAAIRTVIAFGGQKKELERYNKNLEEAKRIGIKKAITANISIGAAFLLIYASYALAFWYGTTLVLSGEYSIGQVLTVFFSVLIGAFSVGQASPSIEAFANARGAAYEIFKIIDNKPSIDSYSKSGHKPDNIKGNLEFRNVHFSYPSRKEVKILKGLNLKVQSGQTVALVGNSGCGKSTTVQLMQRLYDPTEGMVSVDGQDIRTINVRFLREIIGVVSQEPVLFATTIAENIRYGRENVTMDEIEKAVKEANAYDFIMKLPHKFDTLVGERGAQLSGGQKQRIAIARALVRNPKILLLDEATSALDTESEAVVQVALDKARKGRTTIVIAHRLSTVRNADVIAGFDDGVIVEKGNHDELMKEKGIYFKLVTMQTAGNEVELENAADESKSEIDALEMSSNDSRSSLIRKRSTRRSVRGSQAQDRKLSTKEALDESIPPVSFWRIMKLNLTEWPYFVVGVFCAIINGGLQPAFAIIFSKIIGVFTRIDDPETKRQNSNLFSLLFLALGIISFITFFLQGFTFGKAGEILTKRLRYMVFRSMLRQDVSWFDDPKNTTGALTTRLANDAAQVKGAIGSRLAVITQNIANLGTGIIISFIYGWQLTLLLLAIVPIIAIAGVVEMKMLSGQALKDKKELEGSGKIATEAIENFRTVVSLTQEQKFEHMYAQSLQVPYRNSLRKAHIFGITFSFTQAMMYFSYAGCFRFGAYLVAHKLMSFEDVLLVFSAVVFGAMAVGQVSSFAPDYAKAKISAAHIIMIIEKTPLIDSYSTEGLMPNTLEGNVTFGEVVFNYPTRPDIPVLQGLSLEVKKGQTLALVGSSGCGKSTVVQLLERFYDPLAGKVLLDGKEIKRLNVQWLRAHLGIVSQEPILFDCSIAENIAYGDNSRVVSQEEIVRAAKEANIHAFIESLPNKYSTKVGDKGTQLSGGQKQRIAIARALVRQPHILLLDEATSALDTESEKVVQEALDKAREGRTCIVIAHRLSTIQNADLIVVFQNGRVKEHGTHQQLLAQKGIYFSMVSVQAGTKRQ
structure (smiles),measurement,value
"C[C@@H]1O[C@@H](O[C@H]2C[C@](O)(C(=O)CO)Cc3c(O)c4c(c(O)c32)C(=O)c2ccccc2C4=O)[C@H](I)[C@H](O)[C@H]1O [Annamycin, (7S,9S)-7-(((2R,3R,4R,5R,6S)-4,5-dihydroxy-3-iodo-6-methyltetrahydro-2H-pyran-2-yl)oxy)-6,9,11-trihydroxy-9-(2-hydroxyacetyl)-7,8,9,10-tetrahydrotetracene-5,12-dione]",P-gp substrate status,poor substrate
